Patent publication US10954287B2, “Ras binding peptides and methods of use” (Ra Pharmaceuticals, Inc., priority 2016, dated 2021)

Tests used:
[1] = test system: human lung cancer cell line H358; experiment: Cell permeability by monitoring intracellular fluorescence; type: cell-based; settings: H358 cells treated 3.5 hours, serum-free media; compared to negative control and scrambled R4007
Experimental: Cell permeability of R4007 (a TAMRA-labeled R4000 derivative) was determined in the human lung cancer cell line H358 (ATCC, Manassas, Va.). Cells were maintained in RPMI-1640 with 10% FBS at 37° C., 95% relative humidity, 5% CO2. For experiments, cells were seeded at 50,000 cells/well in growth media on 96-well glass bottom plates (Greiner, Monroe, N.C.) and incubated 24 hours prior to treatment. Media was removed from cells and replaced with indicated treatment solutions prepared in serum-free media (0.1% DMSO final). Cells were treated for 3.5 hours, then washed 3 times with PBS, fixed with 4% formaldehyde in PBS for 5 minutes at room temperature, and washed 3 times with PBS. Cell nuclei were stained with 1 μg/ml DAPI nuclear stain for 5 minutes at room temperature. Images were captured using a Zeiss Axio Observer inverted microscope with 63× oil objective with excitation 365 nm/emission 445 for DAPI and excitation 565 nm/emission 620 for TAMRA. TAMRA signal was much stronger in cells treated with R4007 as compared to negative control and cells treated with scrambled R4007.

[2] = test system: GMPPNP-loaded H-Ras or GTP-loaded K-Ras; experiment: Fluorescence polarization competition assay with TAMRA-labeled probe R4007; type: binding, human; settings: 120 nM Ras, 30 nM probe R4007, 60 minutes at room temperature; read-out: Probe displacement (nM IC50)
Procedure, shortened: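 120 nM GMPPNP-loaded H-Ras or GTP-loaded K-Ras was preincubated with 30 nM TAMRA-labeled R4007 probe for 20 min at room temperature in Tris pH 7.5 buffer with MgCl2, EDTA and Triton X-100. Serially diluted competitor was then added for 60 min. Polarization was read at 535/595 nm, with Ki from a one-site Ki fit and IC50 from probe displacement.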

Row | SMILES | intracellular TAMRA signal [1] | IC50 [2]
1 | CCC[C@H](NC(C)=O)C(=O)N[C@H]1CSCc2cccc(c2)CSC[C@@H](C(=O)N[C@@H](Cc2cn(CCCNC(=O)c3ccc(-c4c5ccc(=[N+](C)C)cc-5oc5cc(N(C)C)ccc45)c(C(=O)[O-])c3)nn2)C(N)=O)NC(=O)CN(C)C(=O)[C@H](Cc2ccc(F)cc2)N(C)C(=O)[C@H](Cc2ccc(O)cc2)NC(=O)[C@H](Cc2c[nH]c3ncccc23)NC(=O)[C@H](c2ccccc2)NC(=O)[C@H](C)N(C)C(=O)[C@H](Cc2cnc[nH]2)NC(=O)[C@H](CCCCN)NC(=O)[C@H](C(C)(C)C)NC(=O)[C@H](Cc2ccc(O)cc2)NC1=O [Compound R4007] | much stronger | –
2 | CCC[C@H](NC(C)=O)C(=O)N[C@H]1CSCc2cccc(c2)CSC[C@@H](C(N)=O)NC(=O)CN(C)C(=O)[C@H](Cc2ccc(F)cc2)N(C)C(=O)[C@H](Cc2ccc(O)cc2)NC(=O)[C@H](Cc2c[nH]c3ccccc23)NC(=O)[C@H](c2ccccc2)NC(=O)[C@H](C)N(C)C(=O)[C@H](Cc2c[nH]cn2)NC(=O)[C@H](CCCCN)NC(=O)[C@H](C(C)(C)C)NC(=O)[C@H](Cc2ccc(O)cc2)NC1=O (relative stereo) [Compound R4115, ACE-NVA-CYS*-TYR-TBG-LYS-HIS-NMA-PHG-TRP-TYR-MFF-SAR-CYS*-NH2] | – | 34.1 nM
